Assay: Hydroxyapatite assay (hydroxyapatite adsorption chromatography, bone-targeting potential)
Type: physicochemical
Conditions: K=(retention time-void time)/void, corrected using two reference compounds; TSK-Gel HA 1000 HPLC column; linear gradient 10 mM to 500 mM sodium phosphate, 0.15 N NaCl, pH 6.8
Description: Hydroxyapatite is the principal mineral component of bone. Hydroxyapatite adsorption chromatography is used as an assay to evaluate the bone-targeting potential of both individual bone-targeting moieties (“monomers”) and of pharmaceuticals incorporating bone-targeting groups.
Method: The rentention time of a test compound is measured using a linear gradient from 10 mM sodium phosphate, 0.15 N NaCl, pH=6.8 to 500 mM sodium phosphate, 0.15 N NaCl, […] on a TSK-Gel HA 1000 high pressure liquid chromatography column (7.5 mm×75 mm). The rentention time of the compound is expressed in terms of K=(retention time-void time)/void. This K value is corrected using two reference compounds to correct from inter-column and inter-system variation to obtain a K′ value.
Reference Compounds: K′ values were determined for known bone targeted compounds, the bisphosphonate, alendronate and tetracycline.

- K′ value: 3.7
SMILES: NCCCC(O)(P(=O)(O)O)P(=O)(O)O [Alendronate, alendronate]
